Consider 2 compounds from patent US20090060944A1, “Enhancer Of The Effect Of Adrenocorticoid,Comprising Gum Arabic” (priority 2004, published 2009).

Format in all cases: in vivo, Male Wistar strain rats
Series [1] deals with GM-induced nephritis rats. The series is described as follows: BUN, serum creatinine and creatinine clearance in GM-induced nephritis rats. As to conditions: 8th day; for Effect on BUN level (in words): GM-induced nephritis rats; for BUN / Creatinine clearance / Serum creatinine: mean ± S.E. of 8 to 9 rats. How it is done:
(§1) Gum Arabic was dissolved in water and filtered. The filtrate was spray-dried at about 120° C. to give the GA used in this experiment. GA was dissolved in tap water to prepare a 7.5% GA solution (7.5 g/100 mL, 7.5% GA). The 7.5% GA solution was used for oral administration in drinking water. Gentamicin sulfate (GM) was purchased from Sigma Chemical Co. and used as its saline solution. Prednisolone (PRD) was purchased from Sigma Chemical Co.
(§2) Male Wistar strain rats weighing 200-220 g (n=8 to 9 per group) were provided by SLC (Japan SLC, Hamamatsu). They were maintained in an air-conditioned room with lighting from 7 a.m. to 7 p.m. The room temperature (about 23° C.) and humidity (about 60%) were controlled automatically. They were kept for one week before treatment. Laboratory chows (Labo MR Stock, Nihon Nosan Kogyo K.K., Yokohama) and drinking water were freely available.
(§3) Nephritis was induced in rats by daily intraperitoneal injections of GM (80 mg/kg, i.p.) at 10:00 a.m. for 8 consecutive days. Animals injected with saline (1 mL/kg, i.p.) served as normal control. GA (7.5% GA) via the drinking water was administered for 8 consecutive days.
(§4) Rats were randomly assigned to the following eight groups of 8 to 9 rats each:
(§5) Group 1 (Normal): received daily intraperitoneal injections of saline (1 mL/kg, i.p.) for 8 days with tap water as drinking water.
(§6) Group 2 (7.5% GA): received daily saline (1 mL/kg, i.p.) and 7.5% GA via drinking water for 8 days.
(§7) Group 3 (GM): received daily GM (80 mg/kg, i.p.) for 8 days with tap water as drinking water.
(§8) Group 4 (GM+7.5% GA): received daily GM (80 mg/kg, i.p.) and 7.5% GA via the drinking water for 8 days.
(§9) Group 5 (GM+PRD/water): received daily PRD/water (2 mg/kg, p.o.) at 1 hr before daily GM (80 mg/kg, i.p.) administration for 8 days with tap water as drinking water.
(§10) Group 6 (GM+PRD/water+7.5% GA): received daily PRD/water (2 mg/kg, p.o.) at 1 hr before daily GM (80 mg/kg, i.p.) administration and 7.5% GA via the drinking water for 8 days.
(§11) 24 hr urine samples were obtained by keeping each animal in an individual metabolic cage for 24 hr at 10:00 a.m. on the 8th day. Rats were fasted for 1 day before urine collection. The collected urine was then centrifuged at 1,600×g for 10 min, and the supernatant was used for protein determination. Immediately after the urine collection, blood sample was taken from abdominal veins. The blood was centrifuged at 1,600×g for 10 min to give serum for the determination of blood urea nitrogen (BUN), serum creatinine and creatinine clearance.
(§12) The urinary protein excretion was determined by the method of Kingsbury et al (The Journal of Laboratory and Clinical Medicine, 11, 981-989, 1926) and expressed as mg/day. Briefly, a 3% solution of sulfosalicylic acid was added to a diluted urine sample, and placed at room temperature for 10 minutes. Then concentrations of urinary protein were determined from absorbance at 400 nm, and the urinary protein excretion (mg/day) was calculated from the volume of 24 hr urine. Commercial kits (Wako Pure Chemical Industries, Ltd.) were used to assay BUN, creatinine and creatinine clearance in serum with the following assay kits: Urea nitrogen B and Creatinine.
(§13) The experimental data were tested for statistical significant differences by means of Bonferroni/Dunn's method (Multiple Range Test).
(§14) PRD (2 mg/kg, p.o.) was orally administered in a form of suspension (0.2 mL/100 g weight of rat) in tap water (PRD/water) 1 hr before GM (80 mg/kg, i.p.) administration to rats of group 5 (GM+PRD/water) and group 6 (GM+PRD/water+7.5% GA). Group 5 received tap water as drinking water. Group 6 received 7.5% GA as drinking water.

Series [2] has as its system GM-induced nephritis rats. The series is described as follows: Urine volume and urinary protein in GM-induced nephritis rats. As to conditions: 8th day; for Effect on urinary protein (in words) / Effect on urine volume (in words): GM-induced nephritis rats; for Urinary protein / Urine volume: mean ± S.E. of 8 to 9 rats, 7.5% GA via drinking water. How it is done: as §1, §2, §3, §4, §5, §6, §7, §8, §9, §10, §11, §12, §13, §14

Series [3] deals with GM-induced nephritis rats. The series is described as follows: Organ wet weight / body weight ratio in GM-induced nephritis rats. As to conditions: for Adrenal gland weight / Kidney weight / Liver weight / Spleen weight / Thymus weight: 8th day, mean ± S.E. of 8 to 9 rats, GM 80 mg/kg i.p., 7.5% GA via drinking water. How it is done: as §1, §2, §3, §4, §5, §6, §7, §8, §9, §10
On the last day, the organs (adrenal gland, thymus, spleen, kidney and liver) were isolated from the rats, and the ratio of each organ wet weight (mg)/body weight (100 g) was determined.
as §13, §14

Setting [4] is: Table 1, GM 80 mg/kg i.p. 8 days, 7.5% GA via drinking water, 7.5% GA group got saline, no GM.
Where [5] appears, read: Table 4, GM 80 mg/kg i.p., PRD 2 mg/kg p.o. 1 hr before GM, 7.5% GA via drinking water.
Where [6] appears, read: Table 2, GM 80 mg/kg i.p. 8 days, 7.5% GA group got saline, no GM.
Where [7] appears, read: Table 5, GM 80 mg/kg i.p., PRD 2 mg/kg p.o. 1 hr before GM.

For the compound `C[C@]12C=CC(=O)C=C1CC[C@@H]1[C@@H]2[C@@H](O)C[C@@]2(C)[C@H]1CC[C@]2(O)C(=O)CO` [PRD, Prednisolone], the “Effect on BUN level (in words)” value in series [1] was “significant protective effect on increments of BUN level”. In addition, in series [2], the “Effect on urinary protein (in words)” value is on record as “significantly inhibited the increment of urinary protein” and the “Effect on urine volume (in words)” value is recorded as “did not show any effects on the increment of urine volume”. Besides, in series [3] (rat, in vivo), the “Effect on weight of thymus (in words)” value is given as “further decreased”.

Gentamicin sulfate [GM]: in series [1], the “Effect on BUN level (in words)” value is “markedly increased”. In series [1] (Table 1, GM 80 mg/kg i.p. 8 days, 7.5% GA via drinking water 8 days, 7.5% GA group got saline, no GM), the BUN is on record as 78.0 ± 11.9 mg/dL. In series [1] (setting [4]), this compound came in with a Creatinine clearance of 0.19 ± 0.10 mL/min and a Serum creatinine of 2.36 ± 0.41 mg/dL. In series [1] (setting [5]), this compound returned a BUN of 78.0 ± 11.9 mg/dL, a Creatinine clearance of 0.19 ± 0.10 mL/min and a Serum creatinine of 2.36 ± 0.41 mg/dL. In series [2], the “Effect on urinary protein (in words)” value was “increased” and the “Effect on urine volume (in words)” value was “increased”. In series [2] (setting [6]), this compound had a Urinary protein of 26.7 ± 3.3 mg/24 hr and a Urine volume of 43.1 ± 4.3 mL/24 hr. In addition, in series [2] (setting [7]), the Urinary protein worked out at 26.7 ± 3.3 mg/24 hr and the Urine volume was 43.1 ± 4.3 mL/24 hr. Also, the “Effect on kidney weight ratio (in words)” value in series [3] (GM-induced nephritis rats, last day) is reported as “slightly increased”. In series [3] (GM-induced nephritis rats, last day, side-effect of PRD), the “Effect on weight of thymus (in words)” value is given as “tendency to decrease”. Besides, in series [3] (Table 3), the Adrenal gland weight is 23.5 ± 1.4 mg/100 g of body weight, the Kidney weight is on record as 0.89 ± 0.03 g/100 g of body weight, the Liver weight is 2.95 ± 0.07 g/100 g of body weight and the Spleen weight is reported as 209.4 ± 10.8 mg/100 g of body weight. In series [3] (Table 3), the Thymus weight is given as 223.5 ± 15.2 mg/100 g of body weight. For the same compound, in series [3] (Table 6, PRD 2 mg/kg p.o.), the Adrenal gland weight is recorded as 23.5 ± 1.4 mg/100 g of body weight, the Kidney weight was 0.89 ± 0.03 g/100 g of body weight, the Liver weight is 2.95 ± 0.07 g/100 g of body weight and the Spleen weight is recorded as 209.4 ± 10.8 mg/100 g of body weight. In addition, the Thymus weight in series [3] (Table 6, PRD 2 mg/kg p.o.) is given as 223.5 ± 15.2 mg/100 g of body weight.
